Data reported in patent publication US10821115B2, “Compounds that inhibit Mcl-1 protein” (priority 2017, dated 2020).
pIC50: −log10 of the molar value. Read-outs that look alike come from different tables or passages of the source.

Assays:
OPM-2 Luc cells [1] = assay: OPM-2 xenograft efficacy model; format: in vivo; settings: dosed orally to female athymic nude mice inoculated with OPM-2 Luc cells
Protocol: Example 1 was dosed orally to female athymic nude mice inoculated with OPM-2 Luc cells.

[2] = system: human multiple myeloma cell line, OPM-2; assay: Cell viability assay (OPM-2 10 FBS), CellTiter-Glo; format: cell-based
Method in brief: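 Steps: plate cells at 3000/well in 10% FBS growth medium, add serially diluted compound, incubate 16 h at 37 °C with 5% CO2, add detection reagent and read luminescence after 25 min. A 4-parameter logistic model gives IC50.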

OPM-2 Luc cells [3] = assay: tumor PD model (OPM-2 Luc); format: in vivo; settings: dosed orally to female athymic nude mice inoculated with OPM-2 Luc cells; compared with Reference Compound 1
Protocol: Both compounds were dosed orally to female athymic nude mice inoculated with OPM-2 Luc cells.

[4] = target: recombinant human Mcl-1 (residues 171-327) / Bim interaction (Homo sapiens (Human), UniProt Q07820); assay: biochemical; format: binding; settings: read-out: Mcl-1 HTRF IC50
Sequence of recombinant human Mcl-1 (residues 171-327) / Bim interaction (Q07820 171-327): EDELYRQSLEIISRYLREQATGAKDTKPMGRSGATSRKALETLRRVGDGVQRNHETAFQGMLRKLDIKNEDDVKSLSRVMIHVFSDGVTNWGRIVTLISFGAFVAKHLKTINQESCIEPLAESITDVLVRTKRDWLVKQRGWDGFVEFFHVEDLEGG

[5] = read-out: OPM-2 10% FBS IC50 IP, OPM-2 cells, 10% FBS, 16 h incubation
[6] = 0.1 nM Mcl-1(171-327), 0.05 nM biotin-Bim (51-76)
[7] = TR-FRET, Mcl-1(171-327) / biotin-Bim (51-76)

| Compound | in vivo efficacy in an OPM-2 xenograft efficacy model (OPM-2 Luc cells [1]) | pIC50 [2, 5] | in vivo efficacy relative to Reference Compound 1 in a tumor PD model (OPM-2 Luc cells [3]) | pIC50 [4, 6] | also measured |
| --- | --- | --- | --- | --- | --- |
| CO[C@]1(CN2CCN3CCCC[C@@H]3C2)/C=C/C[C@H](C)[C@@H](C)S(=O)(=O)NC(=O)c2ccc3c(c2)N(C[C@@H]2CC[C@H]21)C[C@@]1(CCCc2cc(Cl)ccc21)CO3 [Example 10, (1 S,3′R,6′R,7′R,8′E, 11′S,12′R)-6-CHLORO-7′-METHOXY-11′,12′-DIMETHYL-7′-((9AR)-OCTAHYDRO-2H-PYRIDO[1,2-A]PYRAZIN-2-YLMETHYL)-3,4-DIHYDRO-2H, 15′H-SPIRO [NAPHTHALENE-1,22′-[20]OXA[13]THIA[1,14]DIAZATETRACYCLO [14.7.2.0-3,6˜.0˜19,24˜]PENTACOSA[8,16,18,24]TETRAEN]-15′-ONE 13′,13′-DIOXIDE] | in vivo efficacy | 7.12 | – | – | – |
| CCO[C@]1(CN2CCN3CCOC[C@@H]3C2)/C=C/C[C@H](C)[C@@H](C)S(=O)(=O)NC(=O)c2ccc3c(c2)N(C[C@@H]2CC[C@H]21)C[C@@]1(CCCc2cc(Cl)ccc21)CO3 [Example 1, (1 S,3′R,6′R,7′R,8′E, 11′S,12′R)-6-chloro-7′-ethoxy-7′-((9aS)-hexahydropyrazino[2,1-c][1,4]oxazin-8(1H)-ylmethyl)-11′,12′-dimethyl-3,4-dihydro-2H,15′H-spiro[naphthalene-1,22′-[20]oxa[13]thia[1,14]diazatetracyclo[14.7.2.0-3,6˜.0˜19,24˜]pentacosa[8,16,18,24]tetraen]-15′-one 13′,13′-dioxide] | in vivo efficacy | 7.07 | superior in vivo efficacy | 10.07 | – |
| (1 S,3′R,6′R,7′S,8′E,11′S, 12′R)-6-chloro-7′-((9aS)-hexahydropyrazino[2,1-c][1,4]oxazin-8(1H)-ylmethyl)-7′-methoxy-11′,12′-dimethyl-3,4-dihydro-2H, 15′H-spiro[naphthalene-1,22′-[20]oxa[13]thia[1,14,25]triazatetracyclo[14.7.2.0-3,6˜.0˜19,24˜]pentacosa[8,16,18,24]tetraen]-15′-one 13′,13′-dioxide [Example 18] | in vivo efficacy | 7.66 | superior in vivo efficacy | 10.22 | – |
| CO[C@]1(CN2CCN(C3COC3)CC2)/C=C/C[C@H](C)[C@@H](C)S(=O)(=O)NC(=O)c2ccc3c(c2)N(C[C@@H]2CC[C@H]21)C[C@@]1(CCCc2cc(Cl)ccc21)CO3 [Example 3, (1 S,3′R,6′R,7′R,8′E,11′S,12′R)-6-chloro-7′-methoxy-11′,12′-dimethyl-7′-((4-(3-oxetanyl)-1-piperazinyl)methyl)-3,4-dihydro-2H, 15′H-spiro[naphthalene-1,22′-[20]oxa[13]thia[1,14]diazatetracyclo[14.7.2.0-3,6˜.0˜19,24˜]pentacosa[8,16,18,24]tetraen]-15′-one 13′,13′-dioxide] | – | 7.22 | superior in vivo efficacy | 10.03 | – |
| CO[C@]1(CN2CCN3CCOC[C@@H]3C2)/C=C/C[C@H](C)[C@@H](C)S(=O)(=O)NC(=O)c2ccc3c(c2)N(C[C@@H]2CC[C@H]21)C[C@@]1(CCCc2cc(Cl)ccc21)CO3 [Example 4, (1S,3′R,6′R,7′R,8′E,11′S,12′R)-6-CHLORO-7′-((9AS)-HEXAHYDROPYRAZINO[2,1-C][1,4]OXAZIN-8(1H)-YLMETHYL)-7′-METHOXY-11′,12′-DIMETHYL-3,4-DIHYDRO-2H, 15′H-SPIRO[NAPHTHALENE-1,22′-[20]OXA[13]THIA[1,14]DIAZATETRACYCLO[14.7.2.0-3,6˜.0˜19,24˜]PENT ACOSA[8,16,18,24]TETRAEN]-15′-ONE 13′,13′-DIOXIDE] | in vivo efficacy | 7.03 | superior in vivo efficacy | 9.94 | – |
| (1 S,3′R,6′R,7′R,8′E,11′S,12′R)-6-chloro-7′-((9aS)-hexahydropyrazino[2,1-c][1,4]oxazin-8(1H)-ylmethyl)-7′-methoxy-12′-(2-methoxyethyl)-11′-methyl-3,4-dihydro-2H, 15′H-spiro[naphthalene-1,22′-[20]oxa[13]thia[1,14]diazatetracyclo[14.7.2.0-3,6˜.0˜19,24˜]pentacosa[8,16,18,24]tetraen]-15′-one 13′,13′-dioxide [Example 11] | in vivo efficacy | 7.29 | – | – | – |
| CO[C@]1(CN2CCN3CCOC[C@H]3C2)/C=C/C[C@H](C)[C@@H](C)S(=O)(=O)NC(=O)c2ccc3c(c2)N(C[C@@H]2CC[C@H]21)C[C@@]1(CCCc2cc(Cl)ccc21)CO3 [Example 58, (1S,3′R,6′R,7′R,8′E,11′S,12′R)-6-chloro-7′-((9aR)-hexahydropyrazino[2,1-c][1,4]oxazin-8(1H)-ylmethyl)-7′-methoxy-11′,12′-dimethyl-3,4-dihydro-2H,15′H-spiro[naphthalene-1,22′-[20]oxa[13]thia[1,14]diazatetracyclo [14.7.2.0~3,6~.0~19,24~]pentacosa[8,16,18,24]tetraen]-15′-one 13′,13′-dioxide] | – | – | – | 9.14 | pIC50 ([2]; Homo sapiens, OPM-2, 16 h, read-out: OPM-2 10% FBS IC50 IP, OPM-2 cells, 10% FBS, 16 h incubation): 7.02 |
| C[C@@H]1[C@@H](C)CCC[C@@](O)(Cc2nccs2)[C@@H]2CC[C@H]2CN2C[C@@]3(CCCc4cc(Cl)ccc43)COc3ccc(cc32)C(=O)NS1(=O)=O (single isomer, unassigned) [Example 100251] | – | – | – | – | pIC50 [4, 7]: 8.48; pIC50 ([2]; read-out: OPM-2 10% FBS IC50 IP, OPM-2 cells, 10% FBS, 16 h, CellTiter-Glo): 5.43 |
| CO[C@@]1(CC(=O)N2CC[C@@H](N(C)C)C2)/C=C/C[C@H](C)[C@@H](C)S(=O)(=O)NC(=O)c2ccc3c(c2)N(C[C@@H]2CC[C@H]21)C[C@@]1(CCCc2cc(Cl)ccc21)CO3 (single isomer, unassigned) [Example 100318] | – | – | – | – | pIC50 [4, 7]: 10.02; pIC50 ([2]; Homo sapiens, OPM-2, 16 h, read-out: OPM-2 10% FBS IC50 IP, OPM-2 cells, 10% FBS, 16 h, CellTiter-Glo): 6.94 |
